Patent US20190022225A1, “PROTOCOL FOR INCREASING LIFE EXPECTANCY IN A TEST SUBJECT” (Mayo Foundation for Medical Education and Research, priority 2015, published 2019)
pIC50: −log10 of the molar value.

Tests used:
[1] = system: senescent (IMR90 Sen(IR)) and non-senescent (IMR90 NS) cells; assay: Senescent cell killing in presence or absence of pan-caspase inhibitor Q-VD-OPh (CellTiter-Glo); format: cell-based, human
Description: After senescence was established, cells were re-seeded into 96 well plates. […] At the end of the assay time period, cells were counted. Each condition was seeded in three plate wells and counted independently. […] Cell survival was determined using the commercially available CellTiter-Glo® Luminescent Cell Viability Assay (Promega Corporation, Madison, Wis.). The assay determines the number of viable cells in culture based on the quantitation of ATP present which is an indicator of metabolically active cells.
After senescence was established, cells were re-seeded into 96 well plates. […] At the end of the assay time period, cells were counted. Each condition was seeded in three plate wells and counted independently. […] Cell survival was determined using CellTiter-Glo® Luminescent Cell Viability Assay (Promega Corporation, Madison, Wis.). The assay determines the number of viable cells in culture based on the quantitation of ATP present which is an indicator of metabolically active cells.

[2] = system: paclitaxel treated p16-3MR mice; assay: Chemotherapy related side effects: voluntary exercise (wheel counts) after paclitaxel in p16-3MR mice; format: in vivo, mouse; settings: ABT-263 100 mg/kg ip daily 7 days; ganciclovir 25 mg/kg ip daily 3 days
Description: ABT-263 (100 mg/kg) was administered intraperitoneally daily for seven days after paclitaxel administration. Two days after the last dose of ABT-263, all groups of animals were housed in metabolic cages (promethion, sable systems international, Las Vegas, Nev.) to monitor voluntary exercise as determined by wheel counts. Data were collected and analyzed two days later. Clearance of senescent cells by ABT-263 and ganciclovir restored approximately 70% of wheel count reduction caused by chemotherapy treatment.

[3] = system: non-senescent IMR90 cells; assay: CellTiter-Glo cell viability assay, non-senescent IMR90; format: cell-based; settings: Homo sapiens, IMR-90, 72 h; IMR90, 3 days, CellTiter-Glo; read-out: IC50 on non-senescent cells
Description: (§1) To determine whether ABT-263 is selectively toxic to senescent cells compared to non-senescent cells, a cell viability assay was used to assess cell survival following treatment with ABT-263. IMR90 cells (human primary lung fibroblasts (IMR90) (IMR-90 (ATCC® CCL-186™, Mannassas, Va.) were seeded in six well plates, and cells were induced to senescence with 10 Gy of ionizing radiation (IR) (Day 0). The media was refreshed every 3 days. The senescent phenotype is allowed to develop for 7 days at which point a cell count was made to determine the baseline number of cells followed by seeding into 96-well plates. On day 8, the senescent cells (irradiated) and the non-senescent cells (the non-radiated cells), were exposed to serial dilutions of ABT-263 for a period of 3 days. ABT-263 concentrations ranged from 0.5 nM to 3 μM. Each condition was seeded in triplicate.
(§2) After three days of treatment (Day 11), cells were assayed for cell survival using the commercially available CellTiter-Glo® (CTG) Luminescent Cell Viability Assay (Promega Corporation, Madison, Wis.). The assay determines the number of viable cells in culture based on the quantitation of ATP present which is an indicator of metabolically active cells.
(§3) The experiments performed for assessing the effect of these other Bcl-2 inhibitors were performed essentially as described in Example 7. Cells were exposed to ABT-199 at serial dilution concentrations ranging from 15 nM to 100 μM (FIGS. 26 and 27). Cells were exposed to Obatoclax at concentrations ranging from 1.4 nM to 9 μM (FIG. 28).
(§4) The effect of ABT-263 in combination with the Akt inhibitor MK-2206 was tested for selective toxicity of senescent cells compared to non-senescent cells in IMR90 cells. The methods of Example 7 were repeated except that cell cultures were exposed to 10 nM MK-2206 (Selleckem, Cat# S1078) in addition to serial dilutions of ABT-263.

[4] = system: senescent (irradiated) IMR90 cells; assay: CellTiter-Glo cell viability assay, senescent IMR90; format: cell-based, human
Description: as §1, §2, §3, §4

[5] = system: senescent HCA2 foreskin fibroblast cells; assay: CellTiter-Glo cell viability assay, senescent HCA2; format: cell-based; settings: 72 h; HCA2, 3 days
Description: as §1, §2
(§5) The methods of Example 7 were repeated in other cell strains. […]

[6] = system: senescent Primary Renal Cortical Cells (renal epithelial cells); assay: CellTiter-Glo cell viability assay, senescent renal epithelial cells; format: cell-based; settings: 72 h, 3 days
Description: as §1, §2, §5

[7] = system: non-senescent HCA2 foreskin fibroblast cells; assay: CellTiter-Glo cell viability assay, non-senescent HCA2; format: cell-based; settings: 72 h; HCA2, 3 days; not toxic up to highest concentration
Description: as §1, §2, §5

[8] = system: non-senescent IMR90 cells; assay: Cell counting assay, ABT-263 on non-senescent IMR90; format: cell-based, human; settings: 3 μM, 24 hours
Description: (§6) To determine whether ABT-263 is selectively toxic to senescent cells compared to non-senescent cells, a cell counting assay was used to determine cell survival following treatment with ABT-263. […] Each condition was seeded in three wells and counted independently. Cells were counted after a 24 hour exposure to ABT-263 (or control culture).

[9] = system: 3MR or INK-ATTAC mice exposed to cigarette smoke; assay: Cigarette smoke exposure model (COPD), oxygen saturation; format: in vivo, mouse; settings: after 2 months of cigarette smoke exposure
Description: Six week-old 3MR (n=35) or INK-ATTAC (n=35) mice were chronically exposed to cigarette smoke generated from a Teague TE-10 system, an automatically-controlled cigarette smoking machine that produces a combination of side-stream and mainstream cigarette smoke in a chamber, which is transported to a collecting and mixing chamber where varying amounts of air is mixed with the smoke mixture. […] Mice received a total of 6 hours of cigarette smoke exposure per day, 5 days a week for 6 months. Each lighted cigarette (3R4F research cigarettes containing 10.9 mg of total particulate matter (TPM), 9.4 mg of tar, and 0.726 mg of nicotine, and 11.9 mg carbon monoxide per cigarette [University of Kentucky, Lexington, Ky.]) was puffed for 2 seconds and once every minute for a total of 8 puffs, with the flow rate of 1.05 L/min, to provide a standard puff of 35 cm^3. The smoke machine was adjusted to produce a mixture of side stream smoke (89%) and mainstream smoke (11%) by smoldering 2 cigarettes at one time. The smoke chamber atmosphere was monitored for total suspended particulates (80-120 mg/m^3) and carbon monoxide (350 ppm). Beginning at day 7, (10) INK-ATTAC and (10) 3MR mice were treated with AP20187 (3×per week) or gancyclovir (5 consecutive days of treatment followed by 16 days off drug, repeated until the end of the experiment), respectively. An equal number of mice received the corresponding vehicle. The remaining 30 mice (15 INK-ATTAC and 15 3MR) were evenly split with 5 of each genetically modified strain placed into three different treatment groups. One group (n=10) received Nutlin-3A (25 mg/kg dissolved in 10% DMSO/3% Tween-20 in PBS, treated 14 days consecutively followed by 14 days off drug, repeated until the end of the experiment). One group (n=10) received ABT-263 (Navitoclax) (100 mg/kg dissolved in 15% DMSO/5% Tween-20, treated 7 days consecutively followed by 14 days off drug, repeated until the end of the experiment), and the last group (n=10) received only the vehicle used for ABT-263 (15% DMSO/5% Tween-20), following the same treatment regimen as ABT-263.
After two months of cigarette smoke exposure, lung function was assessed by monitoring oxygen saturation using the MouseSTAT PhysioSuite pulse oximeter (Kent Scientific). Animals were anesthetized with isoflurane (1.5%) and the toe clip was applied. Mice were monitored for 30 seconds and the average peripheral capillary oxygen saturation (SpO2) measurement over this duration was calculated.

[10] = system: senescent (irradiated) IMR90 cells; assay: Cell counting assay, ABT-263 on senescent IMR90; format: cell-based, human; settings: 3 μM, 24 hours
Description: as §6

[11] = system: non-senescent Primary Renal Cortical Cells (renal epithelial cells); assay: CellTiter-Glo cell viability assay, non-senescent renal epithelial cells; format: cell-based; settings: 72 h, 3 days
Description: as §1, §2, §5

CC1(C)CCC(c2ccc(Cl)cc2)=C(CN2CCN(c3ccc(C(=O)NS(=O)(=O)c4ccc(N[C@H](CCN5CCOCC5)CSc5ccccc5)c(S(=O)(=O)C(F)(F)F)c4)cc3)CC2)C1 [ABT-263, 4-[4-[[2-(4-chlorophenyl)-5,5-dimethylcyclohexen-1-yl]methyl]piperazin-1-yl]-N-[4-[[(2R)-4-morpholin-4-yl-1-phenylsulfanylbutan-2-yl]amino]-3-(trifluoromethylsulfonyl)phenyl]sulfonylbenzamide]
selective killing of senescent cells ([1]; IMR90, 3 days): selectively kills senescent cells | percent of surviving senescent cells in the presence of the pan-caspase inhibitor ([1]; Q-VD-OPh 20 μM, WEHI-539 1.67 or 5 μM, ABT-263 0.33 or 1 μM, 3 days): increased | senolytic activity in the presence of a caspase inhibitor ([1]; panCaspase inhibitor Q-VD-OPh): inhibited | restoration of wheel count reduction caused by chemotherapy treatment [2]: approximately 70% | pIC50 [3]: 5.62 | pIC50 ([4]; Homo sapiens, IMR-90, 72 h, IMR90, 3 days, CellTiter-Glo, read-out: IC50 on senescent cells): 6.85 | in vitro theoretical therapeutic index ([4]; IMR90, non-senescent versus senescent IC50): 17 | pIC50 [5]: 6.39 | pIC50 [6]: 7.60 | pIC50 [7]: < 5.52 | cell growth / survival of non-senescent cells versus starting level [8]: did not decrease the cell growth below the starting level | SpO2 levels versus untreated controls [9]: statistically significant increases | cell counts as percent of counts before treatment [10]: 28% | pIC50 [11]: 6.37
